# According to publication PMC9968098, “Towards Arginase Inhibition: Hybrid SAR Protocol for Property Mapping of Chlorinated N-arylcinnamamides” (International Journal of Molecular Sciences, 2023):
# Like-named read-outs stand apart in the source and are kept apart here.
# Tests used:
# [1] = test system: human monocytic leukemia cell line THP-1; design: method as in PMID 35328580; settings: cell viability, THP-1 cells, n = 3; cited from earlier work
# [2] = design: method as in PMID 35328580; settings: experimentally determined lipophilicity, RP-HPLC; cited from earlier work
# [3] = test system: P. falciparum 3D7/MRA-102; test: In vitro antiplasmodial activity (parasite growth, 48 h); type: cell-based; settings: Plasmodium falciparum, read-out: Pf IC50 ± SD
# Description: The following reagent was obtained through BEI Resources, NIAID, NIH: Plasmodium falciparum, strain 3D7, MRA-102, contributed by Daniel J. Carucci. Based on a modified procedure by Trager and Jensen, asexual erythrocytic stages of Pf were continuously maintained through in vitro culture. The chloroquine-sensitive strain is cultured thanks to human red blood cells (A+) and a culture medium mainly composed of RPMI 1640 (Gibco, Fisher Scientific, Loughborough, UK) containing NaHCO3 (32 mM), HEPES (25 mM), and L-glutamine. The medium was supplemented with 1.76 g/L of glucose (Sigma-Aldrich, […], Belgium), […] of hypoxanthine (Sigma-Aldrich), 100 mg/L of gentamycin (Gibco, Fisher Scientific) and 10% human pooled serum (A+), as previously described. Solutions of pure products were prepared in DMSO at 10 mg/mL. As DMSO is recognized as toxic for parasites, the highest concentration of solvent to which they were exposed was 1%. Thus, primary solutions were diluted in a culture medium to reach 100 μg/mL in the first row of a 96-well plate. Therefore, each test sample was applied in a series of eight 2-fold dilutions and tested in triplicate. The assay was performed with 2% parasitaemia and 1% haematocrit. After 48 h of incubation, plates were frozen at -20 °C for 12 h and parasite growth was quantified according to the methods described by Makler et al.. Chloroquine (Sigma-Aldrich) was used as positive standards in all experiments, with initial concentrations at 100 ng/mL. Infected and uninfected red blood cells (RBC) were used as positive (100% growth) and negative controls (0% growth). Consequently, comparison between infected erythrocytes and samples allowed us to estimate the growth inhibition. IC50 values were calculated from linear regression.
# [4] = chloroquine-sensitive strain 3D7/MRA-102, 48 h incubation, n = 3
Compound,IC50 [1] [µM],logk [2],"IC50 [3, 4] [µM]","IC50 ([3]; 3D7, 48 h) [µM]"
O=C(/C=C/c1ccc(Cl)c(Cl)c1)Nc1cccc(F)c1 [2c],> 10,0.9071,3.4 ± 1,
"CCN(CC)CCCC(C)Nc1ccnc2cc(Cl)ccc12 (stereo not shown) [CQ, chloroquine, reference compound]",,,,0.5 ± 0.2
O=C(/C=C/c1ccc(Cl)c(Cl)c1)Nc1ccc(C(F)(F)F)cc1 [2j],> 10,1.0364,16 ± 2.5,
O=C(/C=C/c1ccc(Cl)c(Cl)c1)Nc1ccc(OC(F)(F)F)cc1Br [2q],> 10,1.2065,23 ± 2.7,
O=C(/C=C/c1ccc(Cl)cc1)Nc1ccc(C(F)(F)F)cc1 [1j],> 10,0.9078,> 30,
O=C(/C=C/c1ccc(Cl)c(Cl)c1)Nc1cc(Cl)ccc1Cl [2n],> 10,1.0840,> 30,
O=C(/C=C/c1ccc(Cl)c(Cl)c1)Nc1cccc(Cl)c1 [2f],> 10,0.7404,10.5 ± 2,
"O=C(/C=C/c1ccc(Cl)c(Cl)c1)Nc1cc(F)cc(F)c1 [2l, (2E)-3-(3,4-dichlorophenyl)-N-(3,5-difluoro-phenyl)prop-2-enamide]",> 10,0.9298,1.8 ± 0.08,
O=C(/C=C/c1ccc(Cl)cc1)Nc1cc(Cl)ccc1Cl [1n],> 10,0.9507,> 30,
O=C(/C=C/c1ccc(Cl)c(Cl)c1)Nc1cccc(C(F)(F)F)c1 [2i],> 10,0.9873,14.2 ± 2.3,
"O=C(/C=C/c1ccc(Cl)c(Cl)c1)Nc1cc(C(F)(F)F)cc(C(F)(F)F)c1 [2p, (2E)-N-[3,5-bis(trifluoromethyl)phenyl]-3-(3,4-dichloro-phenyl)prop-2-enamide]",> 10,1.4731,1.6 ± 0.07,
O=C(/C=C/c1ccc(Cl)cc1)Nc1cccc(Cl)c1 [1f],> 10,0.6192,12.7 ± 2.1,
O=C(/C=C/c1ccc(Cl)cc1)Nc1ccccc1 [1a],> 10,0.4490,> 30,
O=C(/C=C/c1ccc(Cl)cc1)Nc1ccccc1F [1b],> 10,0.6459,> 30,
O=C(/C=C/c1ccc(Cl)cc1)Nc1cccc(F)c1 [1c],> 10,0.7859,6.9 ± 2.1,
O=C(/C=C/c1ccc(Cl)c(Cl)c1)Nc1ccc(Cl)cc1 [2g],> 10,0.6786,7.9 ± 1.7,
O=C(/C=C/c1ccc(Cl)cc1)Nc1cc(F)cc(F)c1 [1l],> 10,0.8054,5.2 ± 0.9,
O=C(/C=C/c1ccc(Cl)c(Cl)c1)Nc1ccc(F)cc1 [2d],> 10,0.9009,14.1 ± 3.1,

Compound,IC50 [1] [µM],logk [2],"IC50 [3, 4] [µM]","IC50 ([3]; 3D7, 48 h) [µM]"
O=C(/C=C/c1ccc(Cl)cc1)Nc1ccccc1C(F)(F)F [1h],> 10,0.5506,> 30,
O=C(/C=C/c1ccc(Cl)c(Cl)c1)Nc1ccccc1F [2b],> 10,0.7764,> 30,
O=C(/C=C/c1ccc(Cl)cc1)Nc1ccc(OC(F)(F)F)cc1Br [1q],> 10,1.0278,24.8 ± 2.5,
O=C(/C=C/c1ccc(Cl)cc1)Nc1ccccc1Cl [1e],> 10,0.5241,> 30,
O=C(/C=C/c1ccc(Cl)cc1)Nc1ccc(F)cc1 [1d],> 10,0.7808,> 30,
O=C(/C=C/c1ccc(Cl)cc1)Nc1cc(Cl)cc(Cl)c1 [1o],> 10,1.1899,4.4 ± 1.8,
O=C(/C=C/c1ccc(Cl)c(Cl)c1)Nc1cc(Cl)cc(Cl)c1 [2o],> 10,1.3043,3.8 ± 1.1,
O=C(/C=C/c1ccc(Cl)c(Cl)c1)Nc1ccc(Cl)cc1Cl [2m],> 10,1.0932,3.4 ± 0.9,
O=C(/C=C/c1ccc(Cl)cc1)Nc1cccc(C(F)(F)F)c1 [1i],> 10,0.8612,14.8 ± 3.1,
O=C(/C=C/c1ccc(Cl)c(Cl)c1)Nc1ccccc1C(F)(F)F [2h],> 10,0.6836,> 30,
O=C(/C=C/c1ccc(Cl)cc1)Nc1ccc(Cl)cc1 [1g],> 10,0.5598,29.2 ± 2.4,
"O=C(/C=C/c1ccc(Cl)cc1)Nc1cc(C(F)(F)F)cc(C(F)(F)F)c1 [1p, (2E)-N-[3,5-bis(trifluoromethyl)phenyl]-3-(4-chlorophenyl)prop-2-enamide]",> 10,1.3064,2.5 ± 0.9,
O=C(/C=C/c1ccc(Cl)cc1)Nc1ccc(F)cc1F [1k],> 10,0.5746,11 ± 2.1,
O=C(/C=C/c1ccc(Cl)cc1)Nc1ccc(Cl)cc1Cl [1m],> 10,0.9665,4.6 ± 1.8,
O=C(/C=C/c1ccc(Cl)c(Cl)c1)Nc1ccccc1Cl [2e],> 10,0.6488,> 30,
"O=C(/C=C/c1ccc(Cl)c(Cl)c1)Nc1ccc(F)cc1F [2k, (2E)-3-(3,4-dichlorophenyl)-N-(2,4-difluoro-phenyl)prop-2-enamide]",> 10,0.6989,1.9 ± 0.06,
O=C(/C=C/c1ccc(Cl)c(Cl)c1)Nc1ccccc1 [2a],> 10,0.6199,21.4 ± 2.6,
